Assay results published in patent US20230321086A1, “METHODS AND MATERIALS FOR INHIBITING NICOTINAMIDE PHOSPHORIBOSYLTRANSFERASE ACTIVITY” (Universiy of Pittsburgh - Of the Commonwealth System of …, priority 2020, published 2023).

What was measured:
NAMPT = NAMPT (Homo sapiens, UniProt P43490); experiment: Assay for in vitro NAMPT activity via NMN assessment; format: biochemical; settings: read-out: A: NAMPT enzyme inhibitory activity, IC50
Description: The following were added to a well: 20 μL 2× test compound in Basic Buffer (0.02% BSA, 2 mM DTT, 12 mM MgCl2, 50 mM Tris pH7.5); 10 μL 8 μg/mL NAMPT, and 200 μM PRPP working solution (or PRPP working solution to background wells). 10 μL 100 μM NAM working solution was added to start the reaction. The plate was sealed and incubated for 45 minutes at 37° C. After incubation, 10 μL 20% acetophenone in DMSO, 10 μL 2N KOH, and 20 μL 88% formic acid were added. The plate was sealed and incubated for 30 minutes at 37° C. After incubation, fluorescence at Ex/Em 387/441 was read.
In each table header, A: NAMPT enzyme inhibitory activity, IC50 (μM); B: Cellular NAD inhibitory activity, IC50 (μM); and C: change in NAD levels in response to test compound, shown as % of NAD activity in the absence of test compound. […] A percentage of 100 percent would indicate no increase or decrease in NAD levels as compared to that measured for untreated control cells, while a percentage of 50 percent would indicate a decrease in NAD levels of 50 percent as compared to that measured for untreated control cells.

A431 cells = experiment: Assay for total NADH and NAD+ measurements in cells; format: cell-based; settings: Homo sapiens, A-431, read-out: B: Cellular NAD inhibitory activity, IC50
Outline: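 Cells (2,000/well) treated with compounds overnight, washed with PBS containing 1 mM CaCl2 and MgCl2, lysed with 0.4% DTAB in phosphate buffer pH 8.0. Reaction mix added and fluorescence (Ex/Em 530/585) followed over 8 cycles every 92 seconds; NAD given as % of untreated control.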

Chain of NAMPT (P43490 whole entry, species assumed): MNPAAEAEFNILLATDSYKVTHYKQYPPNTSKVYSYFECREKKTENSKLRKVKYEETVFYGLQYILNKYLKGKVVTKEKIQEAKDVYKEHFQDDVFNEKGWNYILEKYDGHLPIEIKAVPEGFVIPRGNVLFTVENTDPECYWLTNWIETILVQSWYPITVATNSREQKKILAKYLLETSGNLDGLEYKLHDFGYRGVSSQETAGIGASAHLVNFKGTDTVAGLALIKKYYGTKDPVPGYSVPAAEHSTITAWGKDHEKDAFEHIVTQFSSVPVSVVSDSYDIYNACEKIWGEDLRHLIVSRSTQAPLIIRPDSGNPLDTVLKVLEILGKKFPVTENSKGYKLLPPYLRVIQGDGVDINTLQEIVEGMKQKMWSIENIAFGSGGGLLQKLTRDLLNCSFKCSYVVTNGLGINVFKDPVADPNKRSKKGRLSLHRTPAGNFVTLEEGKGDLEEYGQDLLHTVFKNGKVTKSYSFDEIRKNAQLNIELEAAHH

Row | Structure (SMILES) | IC50 (NAMPT) [nM] | IC50 (A431 cells) [nM]
1 | O=C(NCc1cccnc1)Nc1cnc2nc(-c3ccc(F)cc3)c(-c3ccc(F)cc3)nc2c1 [BC20213] | < 1000 | < 1000
2 | O=C(NCCc1cccnc1)Nc1ccc2nc(-c3ccc(F)cc3)c(-c3ccc(F)cc3)nc2c1 [BC20216] | < 1000 | < 1000
3 | O=C(Nc1cccnc1)Nc1ccc2nc(-c3ccc(F)cc3)c(-c3ccc(F)cc3)nc2c1 [BC20224] | < 1000 | < 1000
4 | O=C(NCc1ccc2nc(-c3ccc(F)cc3)c(-c3ccc(F)cc3)nc2c1)Nc1cccnc1 [BC20235] | < 1000 | < 1000
5 | O=C(Nc1cccnc1)Nc1cnc2nc(-c3ccc(F)cc3)c(-c3ccc(F)cc3)nc2c1 [BC20254] | < 1000 | < 1000
6 | O=C(NCCc1cccnc1)Nc1cnc2nc(-c3ccc(F)cc3)c(-c3ccc(F)cc3)nc2c1 [BC20268] | < 1000 | < 1000
7 | Fc1ccc(-c2nc3cc(NC(=S)NCCc4cccnc4)cnc3nc2-c2ccc(F)cc2)cc1 [BC20309] | < 1000 | < 1000
8 | O=C(NCCc1cccnc1)Nc1cnc2nc(-c3ccc(Cl)cc3)c(-c3ccc(Cl)cc3)nc2c1 [BC20311] | < 1000 | < 1000
9 | O=C(NCCc1cccnn1)Nc1cnc2nc(-c3ccc(F)cc3)c(-c3ccc(F)cc3)nc2c1 [BC20314] | < 1000 | < 1000
10 | O=C(NCCc1cncs1)Nc1cnc2nc(-c3ccc(F)cc3)c(-c3ccc(F)cc3)nc2c1 [BC20315] | < 1000 | < 1000
11 | Nc1ccc(CNC(=O)Nc2cnc3nc(-c4ccc(F)cc4)c(-c4ccc(F)cc4)nc3c2)cn1 [BC20316] | < 1000 | < 1000
12 | O=C(Nc1cnc2nc(-c3ccc(F)cc3)c(-c3ccc(F)cc3)nc2c1)N1Cc2ccccc2C1 [BC20317] | < 1000 | < 1000
13 | O=C(NCCc1cn[nH]c1)Nc1cnc2nc(-c3ccc(F)cc3)c(-c3ccc(F)cc3)nc2c1 [BC20318] | < 1000 | < 1000
14 | O=C(NCCc1c[nH]cn1)Nc1cnc2nc(-c3ccc(F)cc3)c(-c3ccc(F)cc3)nc2c1 [BC20319] | < 1000 | < 1000
15 | Nc1ccc(CCNC(=O)Nc2cnc3nc(-c4ccc(F)cc4)c(-c4ccc(F)cc4)nc3c2)cn1 [BC20320] | < 1000 | < 1000
16 | O=C(Nc1cnc2nc(-c3ccc(F)cc3)c(-c3ccc(F)cc3)nc2c1)N1Cc2cccnc2C1 [BC20321] | < 1000 | < 1000
17 | Fc1ccc(-c2nc3ccc(NC(=S)N4Cc5ccccc5C4)cc3nc2-c2ccc(F)cc2)cc1 [BC20322] | < 1000 | < 1000
18 | Nc1ccc(CNC(=S)Nc2ccc3nc(-c4ccc(F)cc4)c(-c4ccc(F)cc4)nc3c2)cn1 [BC20323] | < 1000 | < 1000
19 | Nc1ccc(CNC(=S)Nc2cnc3nc(-c4ccc(F)cc4)c(-c4ccc(F)cc4)nc3c2)cn1 [BC20324] | < 1000 | < 1000
20 | O=C(NCc1cnc2nc(-c3ccc(F)cc3)c(-c3ccc(F)cc3)nc2c1)Nc1cccnc1 [BC20325] | < 1000 | < 1000
21 | O=C(NCc1cccnc1)NCc1cnc2nc(-c3ccc(F)cc3)c(-c3ccc(F)cc3)nc2c1 [BC20326] | 1000 to 25000 | 1000 to 25000
22 | O=C(NCc1cnc2nc(-c3ccc(F)cc3)c(-c3ccc(F)cc3)nc2c1)N1Cc2ccncc2C1 [BC20327] | < 1000 | < 1000
23 | O=C(NCc1cnc2nc(-c3ccc(F)cc3)c(-c3ccc(F)cc3)nc2c1)c1cc2ccncc2o1 [BC20328] | < 1000 | < 1000
24 | O=C(NCc1cnc2nc(-c3ccc(F)cc3)c(-c3ccc(F)cc3)nc2c1)c1cc2ccccc2s1 [BC20329] | ≥ 25000 | 1000 to 25000
25 | O=C(Nc1ccc2nc(-c3ccc(F)cc3)c(-c3ccc(F)cc3)nc2c1)N1Cc2ccccc2C1 [BC20330] | < 1000 | < 1000
26 | Nc1ccc(CNC(=O)Nc2ccc3nc(-c4ccc(F)cc4)c(-c4ccc(F)cc4)nc3c2)cn1 [BC20331] | < 1000 | < 1000
27 | O=C(NCc1cnc2nc(-c3ccc(F)cc3)c(-c3ccc(F)cc3)nc2c1)N1Cc2cccnc2C1 [BC20332] | < 1000 | < 1000
28 | O=C(Nc1ccc2nc(-c3ccc(F)cc3)c(-c3ccc(F)cc3)nc2c1)N1Cc2cccnc2C1 [BC20333] | < 1000 | < 1000
29 | O=C(Nc1cnc2nc(-c3ccc(F)cc3)c(-c3ccc(F)cc3)nc2c1)N1Cc2ccncc2C1 [BC20334] | < 1000 | < 1000
